The NIST ThermoML archive (doi:10.1016/j.jct.2006.09.008)

Test: molar heat capacity at constant pressure; mn = molality of the nth substance listed, in mol/kg
Details: 350 kPa, Liquid

O=[N+]([O-])[O-].O=[N+]([O-])[O-].[Mg+2] [magnesium nitrate] + O
molar heat capacity at constant pressure [J/K/mol]
Details	m1 = 0.0228	m1 = 0.0567	m1 = 0.1086	m1 = 0.2145	m1 = 0.3197	m1 = 0.4749	m1 = 0.6211	m1 = 0.811	m1 = 1.014
338.15 K	75.34	75.24	75.12	74.91	74.72	74.48	74.3	74.1	73.95
343.15 K	75.39	75.3	75.18	74.96	74.78	74.54	74.36	74.16	74.02
348.15 K	75.46	75.36	75.24	75.02	74.84	74.6	74.42	74.22	74.08
353.15 K	75.53	75.43	75.31	75.09	74.9	74.66	74.48	74.28	74.14
358.15 K	75.61	75.51	75.38	75.16	74.97	74.73	74.55	74.35	74.2
363.15 K	75.69	75.59	75.46	75.24	75.04	74.8	74.61	74.42	74.27
368.15 K	75.78	75.68	75.55	75.32	75.12	74.87	74.68	74.48	74.33
373.15 K	75.88	75.78	75.64	75.4	75.21	74.95	74.76	74.55	74.4
378.15 K	75.99	75.88	75.74	75.5	75.32	75.05	74.83	74.63	74.47
383.15 K	76.11	76	75.85	75.6	75.42	75.14	74.92	74.71	74.55
388.15 K	76.24	76.12	75.97	75.7	75.52	75.24	75.03	74.79	74.63
393.15 K	76.38	76.25	76.09	75.82	75.63	75.34	75.15	74.89	74.73
